Assay results reported in article PMC12305494, “Discovery of PXR Antagonist MI891 and PXR Degrader MI1013 and Their Roles in Hepatic Gene Regulation” (Journal of Medicinal Chemistry, 2025).

Legend:
PXR [1] = target: T1, PXR (Homo sapiens, UniProt O75469+Q96SW2); assay: Western blot of PXR in differentiated HepaRG cells; format: cell-based; details: 24 h
T1 construct: differentiated hepatic HepaRG cells, which naturally express high PXR activity and expression; endogenous in cells; host or cells: differentiated HepaRG
Protocol: The harvested HepaRG cells were lysed in RIPA lysis buffer (Cat. no 89900, Thermo Scientific) containing Halt protease inhibitor cocktail inhibitors (Thermo Scientific). Protein concentration was measured using the Pierce BCA Protein Assay Kit (Cat. no. 23225, Thermo Scientific), samples were diluted in 4 × Laemmli sample buffer (Cat. no. 1610747, BioRad) supplemented with mercaptoethanol and heated at 95 °C for 5 min. Equal amounts of protein were loaded in 4–20% Mini-PROTEAN TGX Stain-Free Protein Gels (12 well. cat. no. 4561095 or 15 well, cat. no. 4568096, Bio-Rad), electrophorised, and transferred onto Trans-Blot Turbo Midi-size PVDF Membrane (cat. no. 1704273, Bio-Rad), and blocked with EveryBlot Blocking buffer for 10 min (cat. no. 12010020, Bio-Rad). The membranes were incubated overnight at 4 °C with the following antibodies: PXR polyclonal antibody (1:500, PA5–41170, Invitrogen), RXRA polyclonal antibody (1:1000, 21218–1-AP, Proteintech), and GSPT1 polyclonal antibody (1:1000, 10763-a-AP, Proteintech), washed with TBS-T for 3 times, and followed by incubation with goat antirabbit IgG (H + L) Secondary antibody, HRP (1:200, 000, 1 h, cat. no. 31460, Invitrogen). Chemiluminescence signals were detected using SuperSignal West Femto Maximum Sensitivity Substrate (cat. no. 34096, Thermo Scientific) and visualized by the ChemiDoc MP Imaging system (Universal Hood III, #731BR02821, Bio-Rad), and the bands were quantified using β-actin (1:2000, recombinant rabbit conjugated monoclonal antibody (JF53-10), cat. no. MA5-32540, Invitrogen) as loading control with ImageJ (version 1.54g) software.

human CAR LBD [2] = target: T2, human CAR LBD (Homo sapiens, UniProt Q14994); assay: CAR LBD assembly assay (CAR AA); format: cell-based; details: na = no activity; tox = cytotoxicity in HepG2 cells
T2 construct: constructs encoding helices 3–12 and helix 1 of human CAR LBD; expressed in transfected cells; host or cells: HepG2
T2 sequence (Q14994 103-150 isoform Q14994-2 limits assumed): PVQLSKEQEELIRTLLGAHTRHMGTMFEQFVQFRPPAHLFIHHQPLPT
T2 sequence (Q14994 151-348 isoform Q14994-2 limits assumed): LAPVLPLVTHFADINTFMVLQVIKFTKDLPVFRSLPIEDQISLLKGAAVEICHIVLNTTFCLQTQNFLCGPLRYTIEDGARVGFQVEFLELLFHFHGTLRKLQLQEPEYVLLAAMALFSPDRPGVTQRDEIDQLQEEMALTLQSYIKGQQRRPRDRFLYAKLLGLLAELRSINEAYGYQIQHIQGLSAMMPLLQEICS
From the text: The CAR LBD assembly assay used constructs encoding helices 3–12 and helix 1 of human CAR LBD as described before. GL4.31[luc2P/GAL4UAS/Hygro] (pGAL4 UAS-luc) luciferase reporter vector and pRL-TK Renilla expression vector (Promega) were used in the assay in HepG2 cells transfected using Lipofectamine 3000.

PXR [3] = target: T3, PXR (Homo sapiens, UniProt O75469); assay: cell-based; details: PXR antagonism: PXR inhibition (IC50, μM), antagonist mode with 10 μM rifampicin; mean ± SD, n = 3
T3 sequence (O75469 1-434): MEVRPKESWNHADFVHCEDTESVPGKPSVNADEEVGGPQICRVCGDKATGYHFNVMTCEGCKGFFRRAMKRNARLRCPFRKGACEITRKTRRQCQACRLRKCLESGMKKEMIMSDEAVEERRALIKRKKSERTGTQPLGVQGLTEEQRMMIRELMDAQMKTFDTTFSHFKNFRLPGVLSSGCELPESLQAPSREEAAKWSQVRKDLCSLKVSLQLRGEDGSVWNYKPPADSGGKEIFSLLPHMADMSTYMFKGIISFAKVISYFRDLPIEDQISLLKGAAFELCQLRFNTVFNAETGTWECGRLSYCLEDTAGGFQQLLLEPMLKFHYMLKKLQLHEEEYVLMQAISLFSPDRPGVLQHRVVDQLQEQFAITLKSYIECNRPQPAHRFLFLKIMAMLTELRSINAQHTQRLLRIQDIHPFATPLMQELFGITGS
Protocol: The PXR activity was assessed as the PXR-dependent transcriptional activation using the construct. […] The control vector pRL-TK (Promega) constitutively expresses Renilla luciferase. […] Transient transfection experiments followed published protocols used in our laboratory and described before. , Luciferase reporter assays were conducted to evaluate interactions with PXR or CAR and their variants in HepG2, or COS-1. Cells were seeded at a density of 40,000 cells/cm^2 in 48-well plates (ThermoFisher Scientific) and maintained at 37 °C in a humidified atmosphere with 5% CO2. […] Following seeding, HepG2 cells were transfected with 150 ng/well of a luciferase reporter construct and 100 ng/well of a nuclear receptor expression vector using Lipofectamine 3000 (ThermoFisher Scientific) and with pRL-TK (30 ng/well) serving as the normalization control. After 24 h, cells were treated with test compounds for 24 h before cell lysis and subsequent firefly and Renilla luciferase activity analysis using the Dual-Glo Luciferase Assay System (Promega). […] The activities of test compounds were normalized to the respective controls to determine % activation or inhibition.

human CAR LBD [4] = target: T4, human CAR LBD (Homo sapiens, UniProt Q14994); assay: LanthaScreen TR-FRET CAR Coactivator assay; format: biochemical; details: nb = no binding
T4 sequence (Q14994 103-352): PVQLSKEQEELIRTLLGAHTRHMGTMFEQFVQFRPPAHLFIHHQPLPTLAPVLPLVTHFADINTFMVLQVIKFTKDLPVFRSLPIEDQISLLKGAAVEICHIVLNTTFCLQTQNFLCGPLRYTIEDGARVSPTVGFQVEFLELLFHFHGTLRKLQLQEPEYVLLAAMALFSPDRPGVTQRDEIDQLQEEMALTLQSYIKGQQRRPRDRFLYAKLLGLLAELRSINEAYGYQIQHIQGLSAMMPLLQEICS
Protocol: We utilized the LanthaScreen TR-FRET CAR Coactivator Binding Assay Kit, goat (Thermo Fisher Scientific, Cat. No. PV4836), which includes GST-tagged human CAR LBD and a fluorescein-labeled PGC1α coactivator peptide. The assay was performed with slight modifications to the manufacturer’s protocol, as previously reported. […] The interaction with the PXR ligand-binding domain (LBD) was assessed using the LanthaScreen TR-FRET PXR Competitive Binding Assay (Thermo Fisher Scientific, PV4839), as previously described. This assay quantifies the ability of test compounds to displace a fluorescent PXR ligand from the receptor. Fluorescence readings were taken on a Synergy 2 Multi-Mode Microplate Reader (BioTek, Winooski, VT). The half-maximal inhibitory concentration (IC50) for PXR LBD was calculated from at least eight data points using GraphPad Prism software.

PXR [5] = target: T3, PXR; assay: PXR-responsive CYP3A4 promoter luciferase reporter assay in HepG2, inverse agonist mode (basal activity); format: cell-based; set-up: expressed in transfected cells; host or cells: HepG2; details: tested at 10 μM, DMSO (0.1%) = 100% basal activity
Protocol: Rhesus monkey, mouse, and rat PXR expression vectors (100 ng/well each) were also obtained from GenScript. […] Carlberg (University of Kuopio, Kuopio, Finland).
The cells were cultured in DMEM medium (Merck) supplemented with 10% fetal bovine serum.

[6] = Plasma stability, mouse plasma; format: in vitro ADME; details: up to 120 min, read-out: Plasma stability, t1/2 (min), mouse
Protocol: The protocols and reagents for the plasma protein binding assay and metabolic stability testing in human and mouse liver microsomes are detailed in our previous report. Briefly, metabolic stability of compounds was assessed at a single concentration (5 μM) at t = 0, 10, 30, and at t = 45 min. The stability of compounds was tested in human and mouse microsomes (ThermoFisher Scientific). Compounds were tested in triplicate with or without NADPH wells as a negative control for cytochrome P450 metabolism. In addition to hepatic metabolism, compounds were also subjected to degradation/modification by enzymes in human (VWR International) and mouse (Biomedica, CZ) plasma for t = 0, 30, 60, and at t = 120 min. Each assay included a substrate with known activity as a positive control. Time points were analyzed by LC/MS/MS. The peak area for the parent compound is compared to the time zero sample in order to assess the amount of remaining compound.

T1 sequence (Q96SW2 whole entry, one chain of several): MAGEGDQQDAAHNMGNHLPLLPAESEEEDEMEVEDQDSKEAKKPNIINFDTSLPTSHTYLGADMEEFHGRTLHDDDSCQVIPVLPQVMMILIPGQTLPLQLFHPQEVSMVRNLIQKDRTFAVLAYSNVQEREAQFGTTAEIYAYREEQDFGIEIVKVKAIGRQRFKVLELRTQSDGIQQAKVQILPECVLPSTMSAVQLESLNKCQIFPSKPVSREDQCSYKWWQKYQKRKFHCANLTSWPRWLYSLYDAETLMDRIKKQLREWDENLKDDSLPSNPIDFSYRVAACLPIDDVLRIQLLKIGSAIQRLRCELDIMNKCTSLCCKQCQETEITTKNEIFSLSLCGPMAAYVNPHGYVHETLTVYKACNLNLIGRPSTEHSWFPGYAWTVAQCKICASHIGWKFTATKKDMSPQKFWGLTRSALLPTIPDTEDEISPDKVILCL

Row | IC50 (PXR [3]) [µM] | Molecule | EC50 (human CAR LBD [2]) [µM] | other results
1 |  | N-(4-((1-(2,5-Dimethoxyphenyl)-5-methyl-1H-1,2,3-triazol-4-yl)sulfonyl)phenyl)-3-(2-(2-(4-(((2-(2,6-dioxopiperidin-3-yl)-1,3-dioxoisoindolin-4-yl)amino)methyl)-1H-1,2,3-triazol-1-yl)ethoxy)ethoxy)propenamide [Compound 35] |  | PXR degradation (Western blot) (PXR [1]): no effect on PXR degradation
2 | 4.94 ± 0.9 | CN(C)C(=O)c1cc(Cc2nnc(-c3c(-c4ccc(Cl)cc4)nc4ccccn34)s2)ccc1Cl [Compound 7, 2-Chloro-5-((5-(2-(4-chlorophenyl)imidazo[1,2-a]pyridin-3-yl)-1,3,4-thiadiazol-2-yl)methyl)-N,N-dimethylbenzamide] | 0.5 ± 0.01 | 
3 |  | COc1ccc(OC)c(-n2nnc(S(=O)(=O)c3ccc(NC(=O)CCOCCOCCOCCOCCn4cc(CNc5cccc6c5C(=O)N(C5CCC(=O)NC5=O)C6=O)nn4)cc3)c2C)c1 (centres unmarked) [Compound 37, N-(4-((1-(2,5-dimethoxyphenyl)-5-methyl-1H-1,2,3-triazol-4-yl)sulfonyl)phenyl)-1-(4-(((2-(2,6-dioxopiperidin-3-yl)-1,3-dioxoisoindolin-4-yl)amino)methyl)-1H-1,2,3-triazol-1-yl)-3,6,9,12-tetraoxapentadecan-15-amide] |  | PXR degradation (Western blot) (PXR [1]): mild effect on PXR degradation
4 | 5.76 ± 2.6 | NC(=O)c1cc(Cn2cc(-c3c(-c4ccc(C5CC5)cc4)nc4ccccn34)nn2)ccc1Cl [Compound 4, 2-Chloro-5-((4-(2-(4-cyclopropylphenyl)imidazo[1,2-a]pyridin-3-yl)-1H-1,2,3-triazol-1-yl)methyl)benzamide] | > 20 | CAR TR-FRET (EC50, μM) (human CAR LBD [4]): nb
5 | > 100 | NC(=O)c1cc(Cn2cc(-c3c(-c4ccncc4)nc4ccccn34)nn2)ccc1Cl [Compound 3, 2-Chloro-5-((4-(2-(pyridine-4-yl)imidazo[1,2-a]pyridine-3-yl)-1H-1,2,3-triazol-1-yl)methyl)benzamide] |  | CAR TR-FRET (EC50, μM) (human CAR LBD [4]): nb
6 |  | NC(=O)c1cc(Cn2cc(-c3c(-c4ccc(Cl)cc4)nc4cc(F)ccn34)nn2)ccc1Cl [Compound 9, 2-Chloro-5-((4-(2-(4-chlorophenyl)-7-fluoroimidazo[1,2-a]pyridin-3-yl)-1H-1,2,3-triazol-1-yl)methyl)benzamide] |  | PXR inverse agonism: decrease of basal activity in % (PXR [5]): (-72.03±0.3) %; PXR inverse agonism: decrease of basal activity in % (PXR [5]; listed as 9 (MI-883)): –72.03 ± 0.3%
7 | 25.4 ± 3.5 | CC(c1ccc(Cl)c(C(N)=O)c1)n1cc(-c2c(-c3ccc(Cl)cc3)nc3ccccn23)nn1 (centres unmarked) [Compound 2, 2-Chloro-5-(1-(4-(2-(4-chlorophenyl)imidazo[1,2-a]pyridin-3-yl)-1H-1,2,3-triazol-1-yl)ethyl)benzamide] | 5.3 ± 0.3 | EC50 (human CAR LBD [4]): > 5 µM
8 |  | CC(C)[N+](C)(CCOC(=O)C1c2ccccc2Oc2ccccc21)C(C)C [Propantheline, reference compound] |  | half-life [6]: 28 ± 1 min
9 | > 100 | CNC(=O)c1cc(Cc2nnc(-c3c(-c4ccc(Cl)cc4)nc4ccccn34)o2)ccc1Cl [Compound 5, 2-Chloro-5-((5-(2-(4-chlorophenyl)imidazo[1,2-a]pyridin-3-yl)-1,3,4-oxadiazol-2-yl)methyl)-N-methylbenzamide] | 1.02 ± 0.2 | EC50 (human CAR LBD [4]): 0.401 µM
10 | 8.04 ± 2.3 | CNC(=O)c1cc(Cn2cc(-c3c(-c4ccc(Cl)cc4)nc4c(F)cc(F)cn34)nn2)ccc1Cl [Compound 12, 2-Chloro-5-((4-(2-(4-chlorophenyl)-6,8-difluoroimidazo[1,2-a]pyridin-3-yl)-1H-1,2,3-triazol-1-yl)methyl)-N-methylbenzamide] |  | CAR TR-FRET (EC50, μM) (human CAR LBD [4]): nb
11 | > 100 | CNC(=S)c1cc(Cc2nnc(-c3c(-c4ccc(Cl)cc4)nc4ccccn34)o2)ccc1Cl [Compound 6, 2-Chloro-5-((5-(2-(4-chlorophenyl)imidazo[1,2-a]pyridin-3-yl)-1,3,4-oxadiazol-2-yl)methyl)-N-methylbenzothioamide] | 0.99 ± 0.15 | EC50 (human CAR LBD [4]): 0.162 µM
